Assays:
GLUT1 = GLUT1 expression in T cells due to PI3K inhibitor and AKT inhibitor treatment; type: cell-based; conditions: both helper and cytotoxic T cells; p<0.05
Description: Furthermore, referring to FIG. 7, the GLUT1 expression level in the T cells due to PI3K inhibitor and AKT inhibitor treatment is shown.

[1] = test system: lung-cancer cell line LLC2; assay: Anti-cancer effect (tumor size) in lung-cancer cell line LLC2; type: in vivo
Procedure: First, referring to FIG. 9A, the results of the anti-cancer effect in the lung-cancer cell line LLC2 due to PI3K inhibitor treatment are shown. […] However, when the PI3K inhibitor treatment is carried out, the tumor size is reduced compared to the control. More specifically, when the PI3K inhibitor BKM 120 treatment is carried out at 35 mpk, the tumor size on the 15th day is 300 to 350 mm^3. When BKM 120 treatment is carried out at 50 mpk, the tumor size on day 15 is found to be 90 to 100 mm^3.

Nc1cc(C(F)(F)F)c(-c2cc(N3CCOCC3)nc(N3CCOCC3)n2)cn1 [BKM 120, buparlisib]
GLUT1 expression in iPI3K+/iAKT− group relative to iPI3K−/iAKT−, iPI3K−/iAKT+ and iPI3K+/iAKT+ groups (GLUT1): 2 to 3 times
tumor size ([1]; 35 mpk, 15th day): 300 to 350 mm^3
tumor size ([1]; 50 mpk, day 15): 90 to 100 mm^3

Reference: US20210292710A1, “METHOD FOR ENHANCING IMMUNE FUNCTION OF IMMUNE CELL AND IMMUNE CELL LINE PRODUCED USING THE SAME” (INDUSTRY-ACADEMIC COOPERATION FOUNDATION, YONSEI UNIVERSITY, priority 2020, published 2021)
